# From PMC4830539, “Chemical Inhibition of Histone Deacetylases 1 and 2 Induces Fetal Hemoglobin through Activation of GATA2” (PLoS ONE, 2016)
# What was measured:
# GATA2 mRNA = GATA2 mRNA in cells from SCD donors; format: cell-based, human; details: 1 μM, 3 days of culture
# [1] = test system: GATA2 binding at the HBD promoter; assay: GATA2 ChIP-QPCR at the HBD promoter; format: cell-based, human; details: 1 μM
# Experimental: Cells were fixed in 1% formaldehyde for 15 minutes at room temperature. Crosslinking reaction was extinguished by adding glycine to 125 mM. Cells were washed three times in PBS, 0.5% lgepal CA-630, 1 mM phenylmethanesulfonyl fluoride (PMSF). Cell pellets were snap frozen on dry ice and stored at -80°C.
# For ChIP-QPCR experiments, chromatin (11 μg) from vehicle (n = 1) or ACY-957 (n = 1) treated cells was fragmented by sonication, then immunoprecipitated (n = 3, each) using antibodies against histone H3 lysine 9 acetylation (3 μg, ab10812, Abcam), histone H2B lysine 5 acetylation (6 μL, ab40886, Abcam), histone H3 lysine 27 acetylation (3 μg, ab4729, Abcam), or GATA2 (6 μg, SC-9008, Santa Cruz). Specific genomic regions within immunoprecipitated and input DNA was detected using SYBR green QPCR with the following primer pairs:
# GATA2 could affect HBG indirectly, through altering the expression of other factors which, in turn, act directly at the β-like globin gene cluster. […] To investigate this possibility, we looked at the β-like globin gene cluster in the GATA2 ChIP-Seq data presented above. Six statistically significant GATA2 binding peaks were identified in vehicle treated cells across the 70 kb region (Fig 9A); corresponding to four locus control region (LCR) hypersensitivity sites, a region in the HBB gene, and a region near the HBD gene promoter. […]
# HBG mRNA = assay: HBG induction in GATA2 knockdown BM cells; format: cell-based, human; details: 1 μM, 4 days, CS1 expansion media
# Experimental: shRNA experiments were conducted using the RNAi consortium (TRC) TRC1.5 vector, also known as pLKO.1-puro (Sigma). Five vectors containing shRNA targeting GATA2 were screened in expanded BM cells and the two hairpins yielding the greatest knockdown of GATA2 mRNA were selected for further use: shG2-1, TRCN0000019264 and shG2-2, TRCN0000019265. […] Lentiviral supernatants were produced in the 293T cell line using shRNA vectors, viral packaging mix (Sigma, SHP001), and TransIT-293 transfection reagent (Mirus Bio, Madison, WI). BM cells were grown for 3 days in CS1 expansion media, and then transduced using lentiviral supernatant’s supplemented with 5 μg/mL of polybrene under room temperature centrifugation at 1200 x g for 75 minutes. Transduced cells were grown for two days to allow for expression of construct, followed by selection for two days in 1 μg/mL of puromycin. The GATA2 overexpression vector (oeG2) was constructed by removing the GFP cassette of the pLKO.1-puro-CMV-TurboGFP vector (Sigma, SHC003) at the 5' NheI and 3' PstI cloning sites and replacing it with the full-length GATA2 transcript sequence (Refseq NM_001145661) (GenScript, Piscataway, NJ). pLKO.1-puro-CMV-TurboGFP vector was used as a control (oeGFP). BM cells were grown for 3 days in CS1 expansion media, and then transduced using the RetroNectin-bound virus method according to manufacturer’s protocol. […]
# [2] = parameters: method as in earlier work; details: rat; cited from earlier work
smiles,measurement,setting,value
Nc1ccc(-c2cccs2)cc1NC(=O)c1ccc2nc(N3CCNCC3)ccc2c1 [ACY-957],GATA2 expression in primary cells derived from SCD patients,GATA2 mRNA,elevated GATA2 expression
same,GATA2 binding at control region within the HBB gene,[1],unaffected
same,increase in GATA2 binding at the HBD promoter,[1],2 fold
same,reduction of the magnitude of HBG mRNA induction in shG2-1 and shG2-2 cells relative to shCtrl cells,HBG mRNA,25%
same,pharmacokinetic properties,[2],favorable
